Data published in PubChem BioAssay (NCI).
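48-hour exposure; five concentrations; linearly interpolated endpoints. GI50 is the concentration that inhibits growth by half. TGI is the concentration that stops growth completely.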

system: ACHN renal; experiment: growth of human tumour cells (NCI), 48 h

| SMILES | TGI [µM] | GI50 [µM] |
| --- | --- | --- |
| CCc1cccc(C)c1NC(=O)CC1C(=O)Nc2ccccc2S1=O (centres undefined) | > 100 | – |
| Cc1ccc(N2C(=O)N(c3ccc(C)cc3)C3(SC=NN3C)C2=O)cc1 (centres undefined) | > 100 | – |
| O=C1c2ccc3c4ccccc4n(-c4ccccc4)c3c2C(=O)N1c1ccc(Cl)cc1 | > 100 | – |
| Cc1ccc2c(c1-c1ccccc1)C(=O)OC2 | > 100 | – |
| CCC[CH2][Sn]1([CH2]CCC)[O]CC(COc2c(Cl)cc(Cl)cc2Cl)[O]1 (centres undefined) | 3.17 | 1.77 |
| NC(CCc1ncc(C(=O)O)s1)C(=O)O (centres undefined) | > 100 | – |
| CSc1ccc2c(cc1=O)[C@@H](NC(=O)c1cc(O)c(O)c(O)c1)CCc1cc(O)c(O)c(O)c1-2 | > 100 | – |
| COC(=O)C(=O)CC(=O)c1cccc(OC)c1 | > 100 | – |
| COc1cc2c3c(n(CCCN(CCO)CCO)c(=O)c2cc1OC)-c1cc2c(cc1C3=O)OCO2 | 0.0855 | < 0.01 |
| CNCCn1c(=O)c2cc(OC)c(OC)cc2c2cnc3cc4c(cc3c21)OCO4 | 1.12 | < 0.01 |
| COc1cc(-c2nnc3n2NC=C(C(=O)O)S3)cc(OC)c1OC | > 100 | – |
| C[P+](C)(C)c1ccccc1 | > 100 | – |
| O=C1c2ccccc2C(=O)N1C/C=N/NS(=O)(=O)c1ccc(Br)cc1 | > 100 | – |
| COc1ccc2c(c1)C(C)Cc1c(ncnc1-n1cnc3ccccc31)N2C (centres undefined) | 27.4 | 0.635 |
| NC(=O)c1cn(Cc2ccccc2)c(=O)n1Cc1ccccc1 | > 100 | – |
| CCOC(=O)C(C)(c1c(C)[nH]c2ccccc12)c1c(C)[nH]c2ccccc12 | 56.6 | – |
| Cc1c(Cl)cccc1NC(=O)c1cccc([N+](=O)[O-])c1O | 62.5 | – |
| CC1COS(=O)O1 (centres undefined) | > 100 | – |
| CC1CCC(C(C)(C)c2ccccc2)C(=O)C1 (centres undefined) | > 100 | – |
| O=C1CC2CCN(C(=O)c3ccccc3)CC2CCN1 (centres undefined) | > 100 | – |
| N#CC(C#N)=C1CCCOc2c1ccc1ccccc21 | > 100 | > 100 |

| SMILES | TGI [µM] | GI50 [µM] |
| --- | --- | --- |
| CCc1nc(Cl)c(Cl)c(Cl)n1 | > 100 | – |
| O=C1C=CC(=CC=C2C=CN(CCCCCCCCCCC(=O)NCCCCCCCCCCCC(=O)O)C=C2)C=C1 | > 100 | – |
| N#Cc1c(-c2ccco2)cc(-c2ccc(N)cc2)[nH]c1=O | > 100 | – |
| C=CCC1(C)CCCCC1(O)CS(=O)c1ccccc1 (centres undefined) | > 100 | – |
| C1COCCSC2=C(SCCO1)SC(=C1SC3=C(SCCOCCOCCS3)S1)S2 | > 100 | – |
| COc1cc(/C=N\O[Si](C)(C)C(C)(C)C)ccc1O[Si](C)(C)C(C)(C)C | > 100 | – |
| CC12CCC(=O)N1c1cccnc1N2 (centres undefined) | > 100 | – |
| COc1cc2c(cc1OC)C1Cc3cc(OC)c(OC)cc3N1CC2 (centres undefined) | 43 | – |
| O=C(NNc1cnccn1)c1nc2cc(F)ccc2n2cccc12 | > 100 | 0.362 |
| C=C1C(=O)OC2C1CC(OC(C)=O)/C(C)=C/CCC1(C)OC21 (centres undefined) | > 100 | – |
| COc1cc(/C=C/C(=O)C(C(=O)/C=C/c2ccc(OC(=O)CCNC34CC5CC(CC(C5)C3)C4)c(OC)c2)C(=O)CCNC23CC4CC(CC(C4)C2)C3)ccc1OC(=O)CCNC12CC3CC(CC(C3)C1)C2 (centres undefined) | 34.1 | 4.03 |
| O=C1C2[C@@H](C(=O)N1c1ccc(Br)cc1)C13C(=CC2([N+](=O)[O-])[C@@H]2C(=O)N(c4ccc(Br)cc4)C(=O)[C@@H]21)c1ccccc1N3c1ccccc1 (some centres undefined) | > 100 | – |
| O=C1/C(=C/N2N=C(c3ccc4ccccc4c3)CC2c2ccccc2O)SC(=S)N1c1cccnc1 (centres undefined) | > 100 | 1.65 |
| CCOC(=O)C1=C(Nc2ccc(Br)cc2)OCC1=O | > 100 | – |
| CCOc1ccc(N=Cc2c3ccccc3nc3ccccc23)cc1 | > 100 | – |
| Nc1ccc(C2=N/C(=C\c3cccc(N)c3)C(=O)O2)cc1 | > 100 | – |
| CC(=O)[CH-]C(=O)c1ccccc1.CC(=O)[CH-]C(=O)c1ccccc1.O=S(=O)([O-])c1cc([O-])c2c([O-])cc(S(=O)(=O)[O-])cc2c1.[Na+].[Ti+4] | > 100 | > 100 |
| Cc1cc(NCCCCNc2ccnc3cc(Cl)ccc23)nc(Nc2ccc(C(=O)N3CCCCC3)cc2)n1 | 9.28 | 3.01 |
| NCCN.O=C([O-])[O-].O=C([O-])[O-].[Co+3].[K+] | > 100 | > 100 |
| C1=NC(N(Cc2ccccc2)Cc2ccccc2)N(Cc2ccccc2)N1 (centres undefined) | 57 | – |
| NC(=O)CNc1ccc([As]=[As]c2ccc(NCC(N)=O)cc2)cc1 (centres undefined) | 30.3 | 11.6 |

system: DU-145 prostate; experiment: growth of human tumour cells (NCI), 48 h

| SMILES | TGI [µM] | GI50 [µM] |
| --- | --- | --- |
| COC(=O)C(=O)CC(=O)c1cccc(OC)c1 | > 100 | – |
| COc1cc2c3c(n(CCCN(CCO)CCO)c(=O)c2cc1OC)-c1cc2c(cc1C3=O)OCO2 | 1.27 | < 0.01 |
| CNCCn1c(=O)c2cc(OC)c(OC)cc2c2cnc3cc4c(cc3c21)OCO4 | 1.27 | < 0.01 |
| COc1ccc2c(c1)C(C)Cc1c(ncnc1-n1cnc3ccccc31)N2C (centres undefined) | 10.3 | 0.439 |
| N#CC(C#N)=C1CCCOc2c1ccc1ccccc21 | > 100 | > 100 |
| O=C(NNc1cnccn1)c1nc2cc(F)ccc2n2cccc12 | > 100 | 0.745 |
| C=C1C(=O)OC2C1CC(OC(C)=O)/C(C)=C/CCC1(C)OC21 (centres undefined) | > 100 | – |
| COc1cc(/C=C/C(=O)C(C(=O)/C=C/c2ccc(OC(=O)CCNC34CC5CC(CC(C5)C3)C4)c(OC)c2)C(=O)CCNC23CC4CC(CC(C4)C2)C3)ccc1OC(=O)CCNC12CC3CC(CC(C3)C1)C2 (centres undefined) | 5.02 | 2.21 |
| O=C1/C(=C/N2N=C(c3ccc4ccccc4c3)CC2c2ccccc2O)SC(=S)N1c1cccnc1 (centres undefined) | > 100 | 1.5 |
| Cc1cc(NCCCCNc2ccnc3cc(Cl)ccc23)nc(Nc2ccc(C(=O)N3CCCCC3)cc2)n1 | 10.7 | 2.87 |
| NC(=O)CNc1ccc([As]=[As]c2ccc(NCC(N)=O)cc2)cc1 (centres undefined) | 35 | 6.48 |

system: HCT-116 colon; experiment: growth of human tumour cells (NCI), 48 h

| SMILES | TGI [µM] | GI50 [µM] |
| --- | --- | --- |
| CCc1cccc(C)c1NC(=O)CC1C(=O)Nc2ccccc2S1=O (centres undefined) | > 100 | – |
| Cc1ccc(N2C(=O)N(c3ccc(C)cc3)C3(SC=NN3C)C2=O)cc1 (centres undefined) | > 100 | – |
| O=C1c2ccc3c4ccccc4n(-c4ccccc4)c3c2C(=O)N1c1ccc(Cl)cc1 | > 100 | – |
| Cc1ccc2c(c1-c1ccccc1)C(=O)OC2 | > 100 | – |
| CCC[CH2][Sn]1([CH2]CCC)[O]CC(COc2c(Cl)cc(Cl)cc2Cl)[O]1 (centres undefined) | 3.03 | 1.67 |
| NC(CCc1ncc(C(=O)O)s1)C(=O)O (centres undefined) | > 100 | – |
| CSc1ccc2c(cc1=O)[C@@H](NC(=O)c1cc(O)c(O)c(O)c1)CCc1cc(O)c(O)c(O)c1-2 | 29.4 | – |
| COC(=O)C(=O)CC(=O)c1cccc(OC)c1 | > 100 | – |
| COc1cc2c3c(n(CCCN(CCO)CCO)c(=O)c2cc1OC)-c1cc2c(cc1C3=O)OCO2 | 0.0679 | < 0.01 |
| CNCCn1c(=O)c2cc(OC)c(OC)cc2c2cnc3cc4c(cc3c21)OCO4 | 0.135 | < 0.01 |
| COc1cc(-c2nnc3n2NC=C(C(=O)O)S3)cc(OC)c1OC | > 68.8 | – |
| C[P+](C)(C)c1ccccc1 | > 100 | – |
| O=C1c2ccccc2C(=O)N1C/C=N/NS(=O)(=O)c1ccc(Br)cc1 | > 100 | – |
| COc1ccc2c(c1)C(C)Cc1c(ncnc1-n1cnc3ccccc31)N2C (centres undefined) | 12.7 | 0.494 |
| NC(=O)c1cn(Cc2ccccc2)c(=O)n1Cc1ccccc1 | > 100 | – |
| CCOC(=O)C(C)(c1c(C)[nH]c2ccccc12)c1c(C)[nH]c2ccccc12 | 25 | – |
| Cc1c(Cl)cccc1NC(=O)c1cccc([N+](=O)[O-])c1O | 40 | – |
| CC1COS(=O)O1 (centres undefined) | > 100 | – |
| CC1CCC(C(C)(C)c2ccccc2)C(=O)C1 (centres undefined) | > 100 | – |
| O=C1CC2CCN(C(=O)c3ccccc3)CC2CCN1 (centres undefined) | > 100 | – |
| N#CC(C#N)=C1CCCOc2c1ccc1ccccc21 | > 100 | > 100 |
| O=C1C=CC(=CC=C2C=CN(CCCCCCCCCCC(=O)NCCCCCCCCCCCC(=O)O)C=C2)C=C1 | > 100 | – |
| N#Cc1c(-c2ccco2)cc(-c2ccc(N)cc2)[nH]c1=O | > 100 | – |
| C=CCC1(C)CCCCC1(O)CS(=O)c1ccccc1 (centres undefined) | > 100 | – |
| C1COCCSC2=C(SCCO1)SC(=C1SC3=C(SCCOCCOCCS3)S1)S2 | > 100 | – |
